Measured values as given in patent publication US20240336601A1 (Chulalongkorn University, priority 2020, published 2024).

Key:
[1] = target: interaction between PD-1 and PD-L1 (Homo sapiens, UniProt Q9NZQ7); assay: PD-1/PD-L1 protein-protein interaction assay (ALPHA); format: binding; conditions: 2 nM His-tagged human PD-L1, 0.6 nM PD-1-Fc, AlphaScreen
[2] = target: T1, PD-1/PD-L1 interaction (Homo sapiens, UniProt Q9NZQ7); assay: PD-1/PD-L1 blockage cell-based bioassay (Jurkat NFAT luciferase / CHO-PDL1 co-culture); conditions: Jurkat NFAT cells co-cultured with CHO-PDL1 cells, 6 h, luminescence
T1 construct: expressed in transfected cells
T1 sequence (Q9NZQ7 19-290): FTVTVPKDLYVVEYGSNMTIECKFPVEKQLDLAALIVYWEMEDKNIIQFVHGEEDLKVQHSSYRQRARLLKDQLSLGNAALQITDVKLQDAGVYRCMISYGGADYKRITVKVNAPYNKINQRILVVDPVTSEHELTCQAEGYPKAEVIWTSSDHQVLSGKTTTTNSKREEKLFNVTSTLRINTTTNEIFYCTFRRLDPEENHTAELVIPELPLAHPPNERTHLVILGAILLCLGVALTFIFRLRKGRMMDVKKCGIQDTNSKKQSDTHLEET

interaction between PD-1 and PD-L1, sequence (Q9NZQ7 19-238 limits assumed): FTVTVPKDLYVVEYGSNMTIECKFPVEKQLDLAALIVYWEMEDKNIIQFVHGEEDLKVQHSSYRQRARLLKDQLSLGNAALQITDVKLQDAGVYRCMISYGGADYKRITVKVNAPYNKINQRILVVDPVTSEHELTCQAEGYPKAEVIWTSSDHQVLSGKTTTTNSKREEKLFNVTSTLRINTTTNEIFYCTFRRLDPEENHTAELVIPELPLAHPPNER

| IC50 [1] | IC50 [2] | Structure (SMILES) |
| --- | --- | --- |
| 10 to 100 nM | > 2000 nM | COc1cc(-n2ccc3c(-c4ccc5c(c4)OCCO5)cccc32)cc(OC)c1CNC(C)(CO)C(=O)O (stereo not drawn) [Example 1, 2-((4-(4-(2,3-dihydrobenzo[b][1,4]dioxin-6-yl)-1H-indol-1-yl)-2,6-dimethoxybenzyl)amino)-3-hydroxy-2-methylpropanoic acid] |
| > 100 nM | – | COc1cc(-n2ccc3c(-c4ccc5c(c4)OCCO5)cccc32)cc(OC)c1CN1C[C@H](O)C[C@@H]1C(=O)O [Example 2, (2R,4R)-1-(4-(4-(2,3-dihydrobenzo[b][1,4]dioxin-6-yl)-1H-indol-1-yl)-2,6-dimethoxybenzyl)-4-hydroxypyrrolidine-2-carboxylic acid] |
| > 100 nM | – | COc1cc(-n2ccc3c(-c4ccc5c(c4)OCCO5)cccc32)cc(OC)c1CNCCNC(C)=O [Example 3, N-(2-((4-(4-(2,3-dihydrobenzo[b][1,4]dioxin-6-yl)-1H-indol-1-yl)-2,6-dimethoxybenzyl)amino)ethyl)acetamide] |
| > 100 nM | – | CC(CO)(NCc1ccc(-n2ccc3c(-c4ccc5c(c4)OCCO5)cccc32)cc1OCc1cccc(C#N)c1)C(=O)O (stereo not drawn) [Example 5, 2-((2-((3-cyanobenzyl)oxy)-4-(4-(2,3-dihydrobenzo[b][1,4]dioxin-6-yl)-1H-indol-1-yl)benzyl)amino)-3-hydroxy-2-methylpropanoic acid] |
| > 100 nM | – | N#Cc1cccc(COc2cc(-n3ccc4c(-c5ccc6c(c5)OCCO6)cccc43)ccc2CNCCO)c1 [Example 6, 3-((5-(4-(2,3-dihydrobenzo[b][1,4]dioxin-6-yl)-1H-indol-1-yl)-2-(((2-hydroxyethyl)amino)methyl)phenoxy)methyl)benzonitrile] |
| > 100 nM | – | COc1cc(C(=O)n2ccc3c(-c4ccc5c(c4)OCCO5)cccc32)cc(OC)c1CNC(C)(CO)C(=O)O (stereo not drawn) [Example 7, 2-((4-(4-(2,3-dihydrobenzo[b][1,4]dioxin-6-yl)-1H-indole-1-carbonyl)-2,6-dimethoxybenzyl)amino)-3-hydroxy-2-methylpropanoic acid] |
| > 100 nM | – | O=C(O)[C@H](CO)NCc1ccc(-n2ccc3c(-c4ccc5c(c4)OCCO5)cccc32)nc1 [Example 9] |
| > 100 nM | – | COc1nc(-n2ccc3c(-c4ccc5c(c4)OCCO5)cccc32)ccc1CN[C@@H](CO)C(=O)O [Example 10] |
| > 100 nM | – | COc1nc(-n2ccc3c(-c4ccc5c(c4)OCCO5)cccc32)ccc1CN1CC(C)(O)C1 [Example 12, ((6-(4-(2,3-dihydrobenzo[b][1,4]dioxin-6-yl)-1H-indol-1-yl)~2~methoxypyridin-3-yl)methyl)-L-serine] |
| > 100 nM | – | COc1cc(-n2ccc3c(-c4ccc5c(c4)OCCO5)cccc32)cc(OC)c1CNC1CNC(=O)C1 (stereo not drawn) [Example 16] |
| > 100 nM | – | COc1cc(CNC[C@@H]2CCC(=O)N2)cc(-n2ccc3c(-c4ccc5c(c4)OCCO5)cccc32)c1 [Example 19] |
| 10 to 100 nM | – | COc1cc(-c2cn(C)c3c(-c4ccc5c(c4)OCCO5)cccc23)cc(OC)c1CNC[C@@H]1CCC(=O)N1 [Example 23] |
| > 100 nM | – | COc1cc(-c2c[nH]c3c(-c4ccc5c(c4)OCCO5)cccc23)cc(OC)c1CNC[C@@H]1CCC(=O)N1 [Example 24] |
| > 100 nM | – | Cn1cc(-n2ccc3c(-c4ccc5c(c4)OCCO5)cccc32)c2ncc(CNCC(C)(C)C(=O)O)cc21 [Example 25] |
| 1 to 10 nM | > 2000 nM | COc1cc(-n2ccc3c(-c4cccc(-c5ccc(CN6CC(C)(O)C6)c(OC)n5)c4Cl)cccc32)cc(OC)c1CN1CC(C)(O)C1 [Example 28] |
| 1 to 10 nM | > 2000 nM | COc1cc(-n2ccc3c(-c4cccc(-c5ccc(CN6CC7(C6)CN(C(C)=O)C7)c(OC)n5)c4Cl)cccc32)cc(OC)c1CNC[C@@H]1CCC(=O)N1 [Example 32] |
| 10 to 100 nM | > 2000 nM | COc1cc(-n2ccc3c(-c4cccc(-c5ccc(CNCC6CNC6)c(OC)n5)c4Cl)cccc32)cc(OC)c1CNC[C@@H]1CCC(=O)N1 [Example 33] |
| 1 to 10 nM | > 2000 nM | COc1cc(-n2ccc3c(-c4cccc(-c5ccc(CN6CC[C@@H](O)C6)c(OC)n5)c4Cl)ccnc32)cc(OC)c1CNC[C@@H]1CCC(=O)N1 [Example 34] |
| 1 to 10 nM | 201 to 2000 nM | COc1cc(-n2ccc3c(-c4cccc(-c5ccc(CN6CC(C)(O)C6)c(OC)n5)c4Cl)cccc32)cc(OC)c1CNC[C@@H]1CCC(=O)N1 [Example 35] |
| 1 to 10 nM | 201 to 2000 nM | COc1cc(-n2ccc3c(-c4cccc(-c5ccc(CN6CC(C)(C(=O)O)C6)c(OC)n5)c4Cl)cccc32)cc(OC)c1CNC[C@@H]1CCC(=O)N1 [Example 37] |

| IC50 [1] | IC50 [2] | Structure (SMILES) |
| --- | --- | --- |
| 10 to 100 nM | > 2000 nM | COc1cc(-n2ccc3c(-c4cccc(-c5ccc(CNC[C@@H]6CCC(=O)N6)c(OC)n5)c4Cl)cccc32)cc(OC)c1CN1CC[C@@H](NC(C)=O)C1 [Example 38] |
| < 1 nM | 201 to 2000 nM | COc1cc(-n2ccc3c(-c4cccc(-c5ccc(CNC[C@@H]6CCC(=O)N6)c(OC)n5)c4Cl)cccc32)cc(OC)c1CNCC(C)(C)C(N)=O [Example 39] |
| < 1 nM | < 200 nM | COc1cc(-n2ccc3c(-c4cccc(-c5ccc(CNC[C@@H]6CCC(=O)N6)c(OC)n5)c4Cl)cccc32)cc(OC)c1CNCC(C)(C)C(=O)O [Example 42] |
| 1 to 10 nM | > 2000 nM | COc1cc(-n2ccc3c(-c4cccc(-c5ccc(CNC[C@@H]6CCC(=O)N6)c(OC)n5)c4Cl)ccnc32)cc(OC)c1CN1CC(C)(C(=O)NC2CC2)C1 [Example 46] |
| < 1 nM | < 200 nM | COc1cc(-n2ncc3c(-c4cccc(-c5ccc(CNC[C@H]6C[C@@H](O)C6)c(OC)n5)c4Cl)cccc32)cc(OC)c1CN1CC(C)(C(=O)O)C1 [Example 47] |
| 10 to 100 nM | > 2000 nM | COc1cc(-n2ccc3c(-c4cccc(-c5ccc(CNCC(C)(C)C(=O)O)c(OC)n5)c4Cl)cccc32)cc(OC)c1CNC[C@@H]1CCC(=O)N1 [Example 48] |
| 10 to 100 nM | > 2000 nM | COC(=O)C1CC[C@H](NCc2ccc(-c3cccc(-c4cccc5c4ccn5-c4cc(OC)c(CNC[C@@H]5CCC(=O)N5)c(OC)c4)c3Cl)nc2OC)C1 (stereo partly drawn) [Example 50] |
| < 1 nM | 201 to 2000 nM | COc1cc(-n2ccc3c(-c4cccc(-c5ccc(CNC[C@@H]6CCC(=O)N6)c(OC)n5)c4Cl)cccc32)cc(OC)c1CN1CC(C)(O)C1 [Example 53] |
| 10 to 100 nM | > 2000 nM | COc1cc(-n2ncc3c(-c4cccc(-c5ccc(CN6CC(C)(O)C6)c(OC)n5)c4Cl)cccc32)cc(OC)c1CNC[C@@H]1CCC(=O)N1 [Example 54] |
| 1 to 10 nM | 201 to 2000 nM | COc1cc(-n2ncc3c(-c4cccc(-c5ccc(CNC[C@H]6C[C@@H](O)C6)c(OC)n5)c4Cl)cccc32)cc(OC)c1CNC[C@@H]1CCC(=O)N1 [Example 55] |
| > 100 nM | – | COc1cc(-n2ccc3c(-c4cccc(NC(=O)c5ccc(CNC(C)(CO)C(=O)O)cc5)c4C)cccc32)cc(OC)c1CNC(C)(CO)C(=O)O (stereo not drawn) [Example 56, 2-((4-((3-(1-(4-(((2-carboxy-1-hydroxypropan-2-yl)amino)methyl)-3,5-dimethoxyphenyl)-1H-indol-4-yl)-2-methylphenyl)carbamoyl)benzyl)amino)-3-hydroxy-2-methylpropanoic acid] |
| > 100 nM | – | Cn1c(CN[C@@H](CO)C(=O)O)cc2ccc(-n3ccc4c(-c5ccc6c(c5)OCCO6)cccc43)cc21 [Example 57, (S)-2-(((4-(2,3-dihydrobenzo[b][1,4]dioxin-6-yl)-1′-methyl-1′H-[1,6′-biindol]-2′-yl)methyl)amino)-3-hydroxypropanoic acid] |
| > 100 nM | – | COc1nc(-n2ccc3c(-c4ccc5c(c4)OCCO5)cccc32)ccc1CN1CC2(C1)CN(C(C)=O)C2 [Example 58, 1-(6-((6-(4-(2,3-dihydrobenzo[b][1,4]dioxin-6-yl)-1H-indol-1-yl)-2-methoxypyridin-3-yl)methyl)-2,6-diazaspiro[3.3]heptan-2-yl)ethanone] |
| > 100 nM | – | c1cc(-c2ccc3c(c2)OCCO3)c2ccn(-c3nc4c(s3)CNCC4)c2c1 [Example 59, 2-(4-(2,3-dihydrobenzo[b] [1,4]dioxin-6-yl)-1H-indol-1-yl)-4,5,6,7-tetrahydrothiazolo[5,4-c]pyridine] |
| > 100 nM | – | COc1nc(-n2ccc3c(-c4ccc5c(c4)OCCO5)cccc32)cnc1CNC[C@@H]1CCC(=O)N1 [Example 60] |
| > 100 nM | – | COc1cc(-n2ccc3c(-c4ccc5c(c4)OCCO5)cccc32)cnc1CNC[C@@H]1CCC(=O)N1 [Example 61, (S)-5-((((5-(4-(2,3-dihydrobenzo[b][1,4]dioxin-6-yl)-1H-indol-1-yl)-3-methoxypyridin-2-yl)methyl)amino)methyl)pyrrolidin-2-one] |
| > 100 nM | – | Cc1nn(CCNC[C@@H]2CCC(=O)N2)c2ccc(-n3ccc4c(-c5ccc6c(c5)OCCO6)cccc43)cc12 [Example 62, (S)-5-(((2-(5-(4-(2,3-dihydrobenzo[b] [1,4]dioxin-6-yl)-1H-indol-1-yl)-3-methyl-1H-indazol-1-yl)ethyl)amino)methyl)pyrrolidin-2-one] |
| > 100 nM | – | Cc1cc2cc(CNC[C@@H]3CCC(=O)N3)cnc2c(-n2ccc3c(-c4ccc5c(c4)OCCO5)cccc32)n1 [Example 63, (S)-5-((((8-(4-(2,3-dihydrobenzo[b][1,4]dioxin-6-yl)-1H-indol-1-yl)-6-methyl-1,7-naphthyridin-3-yl)methyl)amino)methyl)pyrrolidin-2-one] |
| > 100 nM | – | COc1nc(N2CCc3c(-c4ccc5c(c4)OCCO5)cccc32)ccc1CNC[C@@H]1CCC(=O)N1 [Example 80, (S)-5-((((6-(4-(2,3-dihydrobenzo[b][1,4]dioxin-6-yl)indolin-1-yl)-2-methoxypyridin-3-yl)methyl)amino)methyl)pyrrolidin-2-one] |
| > 100 nM | – | Cc1cc(CN2CC(C)(C(=O)O)C2)cc(-n2ccc3c(-c4ccc5c(c4)OCCO5)cccc32)n1 [Example 86, 1-((2-(4-(2,3-dihydrobenzo[b][1,4]dioxin-6-yl)-1H-indol-1-yl)-6-methylpyridin-4-yl)methyl)-3-methylazetidine-3-carboxylic acid] |
